The nature of series [1]: Phase solubility study (apparent solubility of DIA and Rhe with ILs or HP-β-CD). Format: physicochemical. The conditions noted are these: 25 °C, aqueous with cosolvent or surfactant or cyclodextrin, thermodynamic from solid, read-out: saturation solubility. Here is the method:
The increase in the apparent solubility of both DIA and Rhe in the presence of the ILs was evaluated. Briefly, aqueous solutions of the ILs were prepared in the range of 0–200 mg/mL, and an excess of either DIA or Rhe was added to each vial. The samples were then incubated for 30 min at 25°C, and the undissolved drug was removed by centrifugation at […] for 15 min (Hettich Mikro 120 centrifuge). […] The drug concentration was measured by UV–Vis analysis. The DIA phase solubility study was also compared to the phase solubility study of DIA in the presence of HP-β-CD as a reference solubility/stability-enhancing excipient. […] The complexation K was calculated through Higuchi and Connors’ method, as previously reported.
The size distribution and zeta potential values of the ILs’ aggregates in aqueous solutions were evaluated by using a Zetasizer Nano ZS (Malvern) at 25 °C. The samples were prepared by adding an excess of either DIA or Rhe (5 mg/mL) to the aqueous IL solutions, incubating them for 30 min at 25 °C, and finally removing the excess drugs by centrifugation. […] In contrast, for PB solutions, the solutions were prepared in water, and […] of 100 mM pH 7 phosphate buffer was added per 1 mL of aqueous solution, directly in the cuvette, before the dynamic light scattering (DLS) analysis started. The concentrations of the solubilised drug were determined by UV–Vis analysis.

The test system of series [2] is BALB/3T3 clone A31 fibroblast cells. Description: Cytotoxicity screening (WST-1). It is filed as cell-based, murine. The conditions noted are these: Mus musculus, 4 h incubation, read-out: IC50 of cell viability. Here is the method:
BALB/3T3 clone A31 fibroblast cells were grown in Dulbecco’s Modified Eagle Medium (DMEM), supplemented with 2 mM L-glutamine, 1% penicillin/streptomycin, and 10% bovine calf serum. Cells were grown in a CO2 incubator (Heracell 150i series) at 37 °C and 5% CO2, with cells sub-cultured at 80–90% confluency. The cell monolayers were rinsed with PBS and treated with trypsin–EDTA to detach the cells before their resuspension in fresh media. A subconfluent monolayer of BALB/3T3 clone A31 fibroblast cells was trypsinised, centrifuged at 1000 rpm for 5 min, resuspended in growth medium, and counted.
A cytotoxicity screening was carried out for both ILs (range […]), as well as DIA and Rhe (0.5–200 mg/mL). Briefly, BALB/3T3 clone A31 fibroblast cells were seeded in each well of 96-well plates at a seeding density of 6 × 10^3 cells/well for 24 h, until 60–70% confluence was reached. After 24 h, the medium was then removed from each well and replaced with DMEM containing the samples.
After 4 h of incubation, the media were removed, replaced with fresh medium containing 10% WST-1 reagent solution, and maintained for 4 h at 37° C with 5% CO2. Afterwards, formazan dye absorbance was quantified at 450 nm with the reference wavelength at 655 nm by using a multilabel reader (BioTek 800/TS, Thermo Scientific).
(Tetrazolium assays rely on reduction of a dye to a coloured formazan, in cell work by metabolically active cells.)

Series [3] relates to S. aureus (clinical isolate W4). Nature of the series: MIC determination (microdilution). Format: cell-based, Staphylococcus aureus. On the procedure:
(§1) A clinical isolate of S. aureus (W4) and the reference strain of P. aeruginosa ATCC 27853 were used in the study. For the preparation of stock cultures, bacterial strains were grown in Luria–Bertani broth (LB, Oxoid, Basingstoke, Hampshire, UK) until the late-log phase, subdivided into aliquots, and kept frozen at −80 °C until use. Identification and susceptibility testing of the S. aureus W4 strain were performed using MALDI-TOF (Bruker Daltonics, Bremen, Germany) and the BD Phoenix susceptibility testing system (BD, Milan, Italy), respectively.
(§2) The susceptibility of the bacterial strains to each of the tested compounds was assessed in terms of MIC values according to the standard microdilution method (Clinical and Laboratory Standards Institute–CLSI, 2018), with some modifications. Briefly, the bacteria were grown in LB broth until the exponential growth phase and then diluted in the same medium to reach a final density of 5 × 10^6 CFU/mL. A volume of 10 μL of the bacterial suspensions was added to 90 μL of LB in a 96-well plate in the absence (viability control) or presence of the test compound at different concentrations.
(In general: Broth dilution looks for growth in wells or tubes with falling amounts of substance.)

Series [4] relates to P. aeruginosa ATCC 27853. Nature of the series: MIC determination (microdilution). Format: cell-based, Pseudomonas aeruginosa. Here is the method: as §1, §2
Another series has as its system S. aureus W4. Description: Biofilm inhibition assay (crystal violet). It is filed as cell-based, Staphylococcus aureus. Conditions: 12.5 μg/mL. On the procedure: (§3) After overnight growth in LB, cultures of P. aeruginosa ATCC 27853 and S. aureus W4 were diluted 1:100 in LB or in 50% tryptone soy broth (TSB, Oxoid) supplemented with 0.25% glucose (Sigma), respectively. The bacterial suspensions were dispensed into flat-bottomed polystyrene 96-well microplates (Corning Costar, Lowell, MA, USA) in the presence of sub-MIC concentrations of Rhe and DIA (3.12, 6.25, and 12.5 μg/mL). A sample containing 0.8 DMSO % (corresponding to the highest concentration of DMSO tested) was used as a control. The microplates were incubated statically at 37 °C for 24 h, and the biofilm biomass was estimated by CV (Sigma-Aldrich) staining assay, as previously described.

For series [5], the system named is P. aeruginosa ATCC 27853. Description: Biofilm inhibition assay (crystal violet). Format: cell-based, Pseudomonas aeruginosa. Conditions: any of the concentrations tested (3.12, 6.25, 12.5 μg/mL). On the procedure: as §3
Series [6] deals with murine fibroblast NIH 3T3 cells. Also on record: method as in PMID 20302969, doi:10.1039/c0gc00813c. Conditions: ref [29],[30]; cited from earlier work.

The values that follow come from article PMC9916883, “Betaine- and L-Carnitine-Based Ionic Liquids as Solubilising and Stabilising Agents for the Formulation of Antimicrobial Eye Drops Containing Diacerein” (International Journal of Molecular Sciences, 2023).

Converted amounts (≈) assume the structure as drawn. Like-named read-outs stand apart in the source and are kept apart here.

A word on the IC50: it is the concentration that gives 50% inhibition. As usually defined, the MIC is the smallest concentration in the dilution series that meets the test's criterion for growth inhibition. Low values mean inhibition by little substance, high ones a need for much substance. In the case of `O=C(O)c1cc(O)c2c(c1)C(=O)c1cccc(O)c1C2=O` [Rhe, rhein], the values for the solubility at 30 min in series [1] (in Bet6 solutions) and in series [1] (in Carn6 solutions) were 220 µg/mL (≈ 774 µM) and 130 µg/mL (≈ 457 µM), respectively. Besides, in series [2], the IC50 is 6.7 µg/mL (≈ 23.6 µM). Further, the MIC is 50 µg/mL (≈ 176 µM) in series [3] (Staphylococcus aureus, planktonic cells, 24 h, 37 °C) and over 50 µg/mL against P. aeruginosa ATCC 27853 [4] (Pseudomonas aeruginosa, ATCC27853, planktonic cells, 24 h, 37 °C). For the same compound, the figures for the antibacterial effect result (in series [3] (in words (discussion)); with P. aeruginosa ATCC 27853 [4] (in words (discussion))) were “exert antibacterial effects” and “inactive”, respectively. Also, the “biofilm formation (CV staining, OD 570 nm)” value with S. aureus W4 was “statistically significant reduction in biofilm formation”. Further, the “biofilm formation (CV staining, OD 570 nm), difference vs control” value in the series on P. aeruginosa ATCC 27853 [5] is recorded as “not statistically significant”.
Turning to benzalkonium chloride [Bak], the IC50 in series [6] was 9.4 µg/mL.
